{
  "source": "patent US8287923B2",
  "about": "“Compositions and methods for treating immune disorders” (priority 2005, dated 2012)",
  "assay_type_in_all_cases": "cell-based, human",
  "key": {"OSC2 cells": {"tested_on": "OSC2 cells", "assay": "Semi-quantitative RT-PCR of SS-A/Ro and SS-B/La mRNA", "conditions": "100 uM EGCG", "experimental": "Total RNA was extracted using an RNeasy total RNA isolation system (QIAGEN, Valentia, Calif.) RT reactions and PCR reactions were performed according to the manufacturer's protocol (Super Array Bioscience Corp). For amplification, the following pair of primers was used,\nAmplification was started by heating for 1.5 min at 94° C., followed by 30 cycles for 52 kD SSA/Ro. 25 cycles for GAPDH and 25 cycles for SSB/La, each cycle consisting of 15\nsecond at 94° C., 30 seconds at 57.3° C., and 1 min at 72° C. A final extension was performed at 72° C. for 5 min prior to gel analysis.\nTo further test this possibility, three cell types, NHEK, NS-SV-AC (an SV40 immortalized cell line derived from human submandibular acinar cells) and OC2 cells (derived from an oral squamous cell carcinoma) were treated with 100 uM EGCG for different times. A semi-quantitative estimate of SS-A/Ro and SS-B/La mRNA levels was then obtained by RT-PCR during the exponential period of amplification. GAPDH was used as a housekeeping gene control."}, "NS-SV-AC cells": {"tested_on": "NS-SV-AC cells", "assay": "TNF-α-induced cytotoxicity, MTT assay", "conditions": "dose-dependent; 100 ng/ml TNFα, 24 hr; p<0.05", "experimental": "TNF-α cyotoxicity: NS-SV-AC cells (0.5×10<4> cells/well) were seeded in a 96-well microplate and either treated for 24 hr with EGCC as described above (or not treated in the control), in the presence of 100 ng/ml TNFα and 10 μg/ml cyclohexamide. After the treatments, viability was determined by the MTT assay. The cells in each well were washed with 200 μl of phosphate-buffered saline (PBS) and incubated with 100 μl of 2% (w/v) MTT in a solution of 0.05 M Tris-HCl (pH 7.6), 0.5 mM MgCl2, 2.5 mM CoCl2 and 0.25 M disodium succinate at 37° C. for 30 min. Cells were fixed by the addition of 100 μl of 4% (v/v) formalin in 0.2 M Tris-HCl (pH 7.6), and after a 5 min incubation at room temperature liquid was removed and the wells were allowed to dry. Each well was rinsed with 200 μl water and cells were solubilized by the addition of 100 μl of 6.35% (v/v) 0.1 N NaOH in DMSO. The colored formazan product was measured by a Thermo MAX micro plate reader (Molecular Devices Corp. Sunnyvale, Calif.) at a wavelength of 562 nm.\nWe examined the effects of EGCG on TNF-α-induced cytotoxicity of the human salivary gland acinar cell line NS-SV-AC using the MTT assay.\nTo examine the role of activation of the p38 signaling pathway in reducing TNF-α-induced cytotoxicity, cells were exposed to TNF-[alpha] and EGCG in the presence of either the p38 MAPK inhibitor SB203580 or the MEK inhibitor PD98059."}, "NHEK": {"tested_on": "NHEK", "assay": "Affymetrix gene array analysis, inflammatory gene expression", "conditions": "100 μM, vs time 0", "experimental": "The gene array experiment was performed at the Core Facility of Genomics of the Medical College of Georgia, according to the instructions of the manufacturer (Affymetrix, Santa Clara, Calif.). Briefly, NHEK and OSC2 cells treated with 100 μM EGCG for different time period were extracted for total RNA, the RNA was processed for probes and hybridized with a cDNA microarray (HuG133A, Affymetrix) which represents 22,283 human series. DNA chips were read with a Hewlett-Packard GeneArray Scanner at a resolution of […] and were analyzed with the GeneSpring software (Silicon Genetics, Redwood City, Calif.). Details of this analysis will be published elsewhere (Hsu et al., manuscript in preparation)."}},
  "data": [
    {"smiles": "O=C(O[C@@H]1Cc2c(O)cc(O)cc2O[C@@H]1c1cc(O)c(O)c(O)c1)c1cc(O)c(O)c(O)c1", "note": "[EGCG, (−)-epigallocatechin-3-gallate]", "values": [
      {"measurement": "SS-A/Ro mRNA level", "setting": "OSC2 cells", "value": "showed little change"},
      {"measurement": "reduction in SS-B/La mRNA", "setting": "OSC2 cells", "value": "less pronounced and did not occur until 24 hrs of exposure"},
      {"measurement": "protection from TNFα-induced cytotoxicity", "setting": "NS-SV-AC cells", "value": "up to 50%"},
      {"measurement": "BMP2 (205290_s_at) expression", "setting": "NHEK; 0.5 h", "value": 0.32, "unit": "fold"},
      {"measurement": "IFNGR1 (202727_s_at) expression", "setting": "NHEK; 0.5 h", "value": 0.79, "unit": "fold"},
      {"measurement": "IL1A (210118_s_at) expression", "setting": "NHEK; 0.5 h", "value": 0.66, "unit": "fold"},
      {"measurement": "IL1B (39402_at) expression", "setting": "NHEK; 0.5 h", "value": 0.29, "unit": "fold"},
      {"measurement": "IL1B (205067_at) expression", "setting": "NHEK; 0.5 h", "value": 0.29, "unit": "fold"},
      {"measurement": "IL6R (205945_at) expression", "setting": "NHEK; 0.5 h", "value": 0.48, "unit": "fold"},
      {"measurement": "IL6ST (21100_s_at) expression", "setting": "NHEK; 0.5 h", "value": 0.34, "unit": "fold"},
      {"measurement": "IL8 (202859_x_at) expression", "setting": "NHEK; 0.5 h", "value": 6.02, "unit": "fold"},
      {"measurement": "IL10RB (209575_at) expression", "setting": "NHEK; 0.5 h", "value": 0.43, "unit": "fold"},
      {"measurement": "IL13RA2 (206172_at) expression", "setting": "NHEK; 0.5 h", "value": 0.33, "unit": "fold"},
      {"measurement": "IL18 (206295_at) expression", "setting": "NHEK; 0.5 h", "value": 0.33, "unit": "fold"},
      {"measurement": "TNFSF15 (221085_at) expression", "setting": "NHEK; 0.5 h", "value": 0.52, "unit": "fold"},
      {"measurement": "p38 (21156_x_at) expression", "setting": "NHEK; 0.5 h", "value": 2.32, "unit": "fold"},
      {"measurement": "p38 (202530_at) expression", "setting": "NHEK; 0.5 h", "value": 2.51, "unit": "fold"},
      {"measurement": "BMP2 (205290_s_at) expression", "setting": "NHEK; 2 h", "value": 0.96, "unit": "fold"},
      {"measurement": "IFNGR1 (202727_s_at) expression", "setting": "NHEK; 2 h", "value": 0.91, "unit": "fold"},
      {"measurement": "IL1A (210118_s_at) expression", "setting": "NHEK; 2 h", "value": 0.42, "unit": "fold"},
      {"measurement": "IL1B (39402_at) expression", "setting": "NHEK; 2 h", "value": 0.48, "unit": "fold"},
      {"measurement": "IL1B (205067_at) expression", "setting": "NHEK; 2 h", "value": 0.58, "unit": "fold"},
      {"measurement": "IL6R (205945_at) expression", "setting": "NHEK; 2 h", "value": 0.69, "unit": "fold"},
      {"measurement": "IL6ST (21100_s_at) expression", "setting": "NHEK; 2 h", "value": 0.28, "unit": "fold"},
      {"measurement": "IL8 (202859_x_at) expression", "setting": "NHEK; 2 h", "value": 9.55, "unit": "fold"},
      {"measurement": "IL10RB (209575_at) expression", "setting": "NHEK; 2 h", "value": 0.63, "unit": "fold"},
      {"measurement": "IL13RA2 (206172_at) expression", "setting": "NHEK; 2 h", "value": 0.74, "unit": "fold"},
      {"measurement": "IL18 (206295_at) expression", "setting": "NHEK; 2 h", "value": 0.65, "unit": "fold"},
      {"measurement": "TNFSF15 (221085_at) expression", "setting": "NHEK; 2 h", "value": 1.56, "unit": "fold"},
      {"measurement": "p38 (21156_x_at) expression", "setting": "NHEK; 2 h", "value": 1.46, "unit": "fold"},
      {"measurement": "p38 (202530_at) expression", "setting": "NHEK; 2 h", "value": 1.09, "unit": "fold"},
      {"measurement": "BMP2 (205290_s_at) expression", "setting": "NHEK; 6 h", "value": 0.72, "unit": "fold"},
      {"measurement": "IFNGR1 (202727_s_at) expression", "setting": "NHEK; 6 h", "value": 0.45, "unit": "fold"},
      {"measurement": "IL1A (210118_s_at) expression", "setting": "NHEK; 6 h", "value": 0.54, "unit": "fold"},
      {"measurement": "IL1B (39402_at) expression", "setting": "NHEK; 6 h", "value": 0.40, "unit": "fold"},
      {"measurement": "IL1B (205067_at) expression", "setting": "NHEK; 6 h", "value": 0.49, "unit": "fold"},
      {"measurement": "IL6R (205945_at) expression", "setting": "NHEK; 6 h", "value": 0.31, "unit": "fold"},
      {"measurement": "IL6ST (21100_s_at) expression", "setting": "NHEK; 6 h", "value": 0.99, "unit": "fold"},
      {"measurement": "IL8 (202859_x_at) expression", "setting": "NHEK; 6 h", "value": 9.99, "unit": "fold"},
      {"measurement": "IL10RB (209575_at) expression", "setting": "NHEK; 6 h", "value": 0.76, "unit": "fold"},
      {"measurement": "IL13RA2 (206172_at) expression", "setting": "NHEK; 6 h", "value": 0.81, "unit": "fold"},
      {"measurement": "IL18 (206295_at) expression", "setting": "NHEK; 6 h", "value": 0.70, "unit": "fold"},
      {"measurement": "TNFSF15 (221085_at) expression", "setting": "NHEK; 6 h", "value": 0.67, "unit": "fold"},
      {"measurement": "p38 (21156_x_at) expression", "setting": "NHEK; 6 h", "value": 1.62, "unit": "fold"},
      {"measurement": "p38 (202530_at) expression", "setting": "NHEK; 6 h", "value": 0.63, "unit": "fold"},
      {"measurement": "BMP2 (205290_s_at) expression", "setting": "NHEK; 24 h", "value": 0.44, "unit": "fold"},
      {"measurement": "IFNGR1 (202727_s_at) expression", "setting": "NHEK; 24 h", "value": 0.92, "unit": "fold"},
      {"measurement": "IL1A (210118_s_at) expression", "setting": "NHEK; 24 h", "value": 0.27, "unit": "fold"},
      {"measurement": "IL1B (39402_at) expression", "setting": "NHEK; 24 h", "value": 0.27, "unit": "fold"},
      {"measurement": "IL1B (205067_at) expression", "setting": "NHEK; 24 h", "value": 0.26, "unit": "fold"},
      {"measurement": "IL6R (205945_at) expression", "setting": "NHEK; 24 h", "value": 0.69, "unit": "fold"},
      {"measurement": "IL6ST (21100_s_at) expression", "setting": "NHEK; 24 h", "value": 0.61, "unit": "fold"},
      {"measurement": "IL8 (202859_x_at) expression", "setting": "NHEK; 24 h", "value": 9.93, "unit": "fold"},
      {"measurement": "IL10RB (209575_at) expression", "setting": "NHEK; 24 h", "value": 0.38, "unit": "fold"},
      {"measurement": "IL13RA2 (206172_at) expression", "setting": "NHEK; 24 h", "value": 0.55, "unit": "fold"},
      {"measurement": "IL18 (206295_at) expression", "setting": "NHEK; 24 h", "value": 0.65, "unit": "fold"},
      {"measurement": "TNFSF15 (221085_at) expression", "setting": "NHEK; 24 h", "value": 0.63, "unit": "fold"},
      {"measurement": "p38 (21156_x_at) expression", "setting": "NHEK; 24 h", "value": 2.51, "unit": "fold"},
      {"measurement": "p38 (202530_at) expression", "setting": "NHEK; 24 h", "value": 1.17, "unit": "fold"}
    ]}
  ]
}
